According to patent US9291619B2, “Method for detecting non-transferrin bound iron” (Yissum Research Development Company of the Hebrew …, priority 2011, dated 2016):
Counter-ions that a name gives are not always drawn.

Assays:
Type in all cases: biochemical, human
[1] = LPI (labile plasma iron) assay without NTA; settings: for serum concentration of chelator required for reducing LPI by 2 μM: 2 hr incubation with thalassemia serum at room temperature, LPI assay without NTA; for effect of added serum component on measured LPI values: added to sera from 6 thalassemic patients, citrate 0.15 mM, albumin 10 mg/ml, uric acid 0.5 mM
Method: Determination of LPI and DCI. The properties of the assays used in this study in their different modalities are compiled in Table 2, below.
(§1) LPI determination, The LPI (Labile iron in plasma) assay was used as described previously or in the presence of NTA added from a concentrated solution. In experiments testing the effects of various additives on LPI, 20 μl of the additives dissolved in HBS (HEPES buffered saline composed of 20 mM HEPES, 150 mM NaCl, pH 7.4) were mixed with 20 μl of serum. Control samples and iron standards were similarly diluted with HBS. LPI assays without added NTA (‘redox-active LPI’) are designated “LPI” and LPI assays with added NTA (0.5 mM unless stated otherwise) are designated “eLPI”.
Measurements of LPI were originally designed for the detection of labile forms of iron in native human plasma or serum. The purpose was to assess if those labile forms could serve as indicators of impending tissue iron overload and as direct targets of chelation, on the basis that they should be comprised of chemical forms that are distinguishable from the non-labile Tf-bound iron in that they are redox-active, exchangeable with other ligands and accessible to chelators. This led to simple and sensitive assays that are performed under nearly physiological conditions, with 40 μM ascorbate added to initiate redox cycling of the iron and ensuing generation of reactive oxygen species (ROS) that are quantified by a fluorescence assay (Table 1). […] Thus, the assay avoids the inadvertent detection of transferrin-bound iron or labile iron-chelates. The detected LPI reflects the most labile or redox-active forms of NTBI in native plasma or serum, but not putative forms bound to non-labile ligands (e.g. citrate, albumin) In addition, the detection of LPI might be susceptible to masking by plasma antioxidants. […] For comparison, they also used a more direct assay for NTBI, in which DFO-chelatable iron is determined by its stoichiometric binding to the probe fluorescein-DFO in the presence and absence of an iron mobilizing agent.

[2] = eLPI assay (LPI assay with added NTA); settings: for serum concentration of chelator required for reducing eLPI by 2 μM: 2 hr incubation with thalassemia serum at room temperature, eLPI assay (0.5 mM NTA)
Method: as §1
As the iron-mobilizing effect of NTA on NTBI has been previously shown to be dependent on the NTA concentration, the effect of increasing NTA concentrations on LPI levels in 9 representative sera: 7 from thalassemia patients and 2 from normal individuals (FIG. 1) was assessed. […] The detected LPI signal reached maximum levels at 0.1 mM NTA in sera with LPI <1 μM and at 0.5 mM NTA in thalassemic sera with LPI >1 μM. Control sera […] remained LPI-negative at all tested concentrations of NTA, a finding corroborated in LPI tests carried out with 0.5 mM NTA on >100 sera from normal individuals (data not shown). The same values of LPI were obtained when sera were assayed with 0.5 mM NTA present in the final assay solution or when sera were preincubated with NTA for 1 hr prior to 10-fold dilution with assay solution lacking NTA. Based on the relatively fast (within minutes) and distinct extraction/mobilization of LPI components by moderate NTA treatment depicted in FIG. 1, a modality of the original LPI assay by incorporating 0.5mM NTA as extracting/mobilizing agent was adopted and referred to as enhanced LPI (eLPI).

[3] = DCI (directly chelatable iron) assay with fluorescein-DFO; settings: for effect of added serum component on DCI values: added to thalassemia sera
Excerpt: DCI determination. The DCI assay (directly chelatable iron) was used for sample analysis of labile iron by assessing its binding to fluorescein-DFO (Table 1) with a fluorescence plate reader or adapted for flow cytometry using as analytical probe fluorescein and DFO covalently coupled to chemically modified polystyrene beads (Spherotec Inc., Lake Forest, Ill., USA) (and an Eclipse instrument (iCyt, Champaign, Ill., USA) (Breuer et al, to be published elsewhere). In tests of the effect of NTA on DCI determination, NTA was added from a stock solution directly to the assay reagents. In experiments testing the effects of various additives on DCI, 20 μl of the additives dissolved in HBS were mixed with 20 μl of serum samples and the combined mixture (40 μl) was used in the assay. Control samples and iron standards were similarly diluted with HBS. In previous publications the term DCI has always indicated the assay format without NTA. In the present work the two formats of the
DCI assay are designated DCI (−) (without NTA) and DCI (+) (with 0.1 mM NTA).
For comparing eLPI with NTBI, the present inventors have employed an alternative assay for NTBI, termed directly-chelatable iron or DCI (FIG. 2, lower panel). Unlike LPI and eLPI which measure iron redox activity, DCI measures the accessibility of NTBI to a fluorescent, high-affinity chelator probe (fluorescein-DFO). […] This was confirmed by testing 22 TM sera for DCI without and with 0.1 mM NTA. An average increase of 0.14±0.13 μM was obtained in the presence of NTA (Breuer, W. and Cabantchik, Z. I, unpublished observations). The concentration of NTA in the DCI assay had to be limited to 0.1 mM to avoid contributions from holo-Tf-iron. Release of iron from holo-Tf by various carboxylate ligands such as NTA in combination with DFO has been documented previously. […] The present inventors tentatively attribute the exogenous albumin-mediated reduction of DCI to the binding of the fluorescein moiety of fluorescein-DFO to one of purified-albumin's hydrophobic binding sites, leading to a partial loss of sensitivity to quenching of the fluorescent chelator by iron. As the majority of such sites is normally occupied in plasma, their interference with the above assay should be minor

Molecule | serum concentration of chelator required for reducing LPI by 2 μM [1] [µM] | serum concentration of chelator required for reducing eLPI by 2 μM [2] [µM] | effect of added serum component on measured LPI values [1] | effect of added serum component on DCI values [3] | other results
CC(=O)N(O)CCCCCNC(=O)CCC(=O)N(O)CCCCCNC(=O)CCC(=O)N(O)CCCCCN [DFO, deferrioxamine] | < 10 | ~10 | – | – | competition with fluorescein-DFO in preventing the detection of DCI ([3]; DCI assays without and with NTA): competed efficiently
Cc1c(O)c(=O)ccn1C [DFP, 1,2-dimethyl-3-hydroxypyridin-4-one] | ~25 | ~75 | – | – | concentration in the serum required to decrease DCI by 2 μM, compared with LPI and eLPI ([3]; DCI assays without and with NTA, 2 hr incubation with thalassemia serum): markedly greater
O=C(O)CC(O)(CC(=O)O)C(=O)O [citrate, sodium citrate] | – | – | significantly attenuated | Neither citrate nor uric acid significantly affected DCI values | –
O=c1[nH]c(=O)c2[nH]c(=O)[nH]c2[nH]1 [uric acid] | – | – | significantly attenuated | Neither citrate nor uric acid significantly affected DCI values | –
iron-saturated Tf: human apo-Tf saturated with iron (ferrous ammonium sulfate), dialyzed | – | – | – | – | effect of added serum component on eLPI values ([2]; 1 mg/ml added to 6 thalassemia sera in the presence of NTA): no significant effect
